In patent US20100120858A1, “Piperidine Derivatives” (Pfizer Inc., priority 2006, published 2010):
Counter-ions that a name gives are not always drawn.

Assays:
[1] = molecular target: human norepinephrine transporter (Homo sapiens, UniProt P23975); assay: Human norepinephrine (hNET) receptor binding, [125I]-RTI-55; conditions: membranes of HEK-293 cells transfected with human norepinephrine transporter cDNA; 50 pM [125I]-RTI-55; IC50 converted by Cheng-Prusoff
Experimental: Cell pastes of human embryonic kidney 293 (HEK-293) cells transfected with a human norepinephrine transporter cDNA were prepared. The cell pastes were resuspended in 400 to 700 mL of Krebs-N-2-hydroxyethylpiperazine-N′-2-ethanesulfonic acid (HEPES) assay buffer (25 mM HEPES, 122 mM NaCl, 3 mM KCl, 1.2 mM MgSO4, 1.3 mM CaCl2, and 11 mM glucose, pH 7.4) with a Polytron homogenizer at setting 7 for 30 seconds. Aliquots of membranes (5 mg/mL protein) were stored in liquid nitrogen until used.
The binding assay was set up in Beckman deep-well polypropylene plates with a total volume of 250 μL containing: test compound (concentration of 10^−5M to 10^−12M), cell membranes, and 50 pM [^125I]-RTI-55 ([^125I]-3 beta-(4-iodophenyl)tropan-2 beta-carboxylic acid methyl ester) (Perkin Elmer, NEX-272; specific activity 2200 Ci/mmol). The reaction was incubated by gentle agitation for 90 minutes at room temperature and was terminated by filtration through Whatman GF/C filter plates using a Brandel 96-well plate harvester. Scintillation fluid (100 μL) was added to each well, and bound [^125I]-RTI-55 was determined using a Wallac Trilux Beta Plate Counter. Test compounds were run in duplicate, and specific binding was defined as the difference between binding in the presence and absence of 10 μM desipramine.
Excel and GraphPad Prism software were used for data calculation and analysis. IC50 values were converted to Ki values using the Cheng-Prusoff equation. The Ki values (nM) for the hNET are reported below in Table 13.

[2] = molecular target: human serotonin transporter (Homo sapiens, UniProt P31645); assay: Human serotonin (hSERT) receptor binding, [125I]-RTI-55; conditions: membranes of HEK-293 cells transfected with human serotonin transporter cDNA, IC50 converted by Cheng-Prusoff
Chain of human serotonin transporter (P31645 whole entry): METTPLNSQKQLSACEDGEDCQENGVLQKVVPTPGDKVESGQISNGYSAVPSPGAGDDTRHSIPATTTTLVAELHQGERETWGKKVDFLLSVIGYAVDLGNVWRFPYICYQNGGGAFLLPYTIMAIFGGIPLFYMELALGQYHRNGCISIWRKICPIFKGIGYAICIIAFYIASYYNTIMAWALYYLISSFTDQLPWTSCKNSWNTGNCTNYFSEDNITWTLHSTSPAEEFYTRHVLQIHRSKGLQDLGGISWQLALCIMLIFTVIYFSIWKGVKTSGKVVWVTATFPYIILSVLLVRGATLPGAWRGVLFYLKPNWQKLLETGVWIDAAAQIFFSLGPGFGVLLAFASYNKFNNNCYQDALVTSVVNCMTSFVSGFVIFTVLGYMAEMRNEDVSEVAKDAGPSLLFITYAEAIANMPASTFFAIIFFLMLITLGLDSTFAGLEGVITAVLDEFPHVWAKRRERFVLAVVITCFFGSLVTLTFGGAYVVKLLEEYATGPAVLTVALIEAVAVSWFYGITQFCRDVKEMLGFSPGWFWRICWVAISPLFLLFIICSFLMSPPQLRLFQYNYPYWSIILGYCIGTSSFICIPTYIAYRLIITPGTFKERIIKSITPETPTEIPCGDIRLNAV
Experimental: Cell pastes of HEK-293 cells transfected with a human serotonin transporter cDNA were prepared. The cell pastes were resuspended in 400 to 700 ml of Krebs-HEPES assay buffer (25 mM HEPES, 122 mM NaCl, 3 mM KCl, 1.2 mM MgSO4, 1.3 mM CaCl2, and 11 mM glucose, pH 7.4) with a Polytron homogenizer at Setting 7 for 30 seconds. Aliquots of membranes (˜2.5 mg/mL protein) were stored in liquid nitrogen until used.
Assays were set up in FlashPlates pre-coated with 0.1% polyethyleneimine (PEI) in a total volume of 250 μL containing: test compound (concentration 10^−5M to 10^−12M), cell membranes, and […] [^125I]-RTI-55 (Perkin Elmer, NEX-272; specific activity 2200 Ci/mmol). The reaction was incubated and gently agitated for 90 minutes at room temperature, and terminated by removal of assay volume. Plates were covered, and bound [^125I]-RTI-55 was determined using a Wallac Trilux Beta Plate Counter. Test compounds were run in duplicate, and specific binding was defined as the difference between binding in the presence and absence of 10 μM citalopram.
Excel and GraphPad Prism software were used for data calculation and analysis. IC50 values were converted to Ki values using the Cheng-Prusoff equation.

Chain of human norepinephrine transporter (P23975 whole entry): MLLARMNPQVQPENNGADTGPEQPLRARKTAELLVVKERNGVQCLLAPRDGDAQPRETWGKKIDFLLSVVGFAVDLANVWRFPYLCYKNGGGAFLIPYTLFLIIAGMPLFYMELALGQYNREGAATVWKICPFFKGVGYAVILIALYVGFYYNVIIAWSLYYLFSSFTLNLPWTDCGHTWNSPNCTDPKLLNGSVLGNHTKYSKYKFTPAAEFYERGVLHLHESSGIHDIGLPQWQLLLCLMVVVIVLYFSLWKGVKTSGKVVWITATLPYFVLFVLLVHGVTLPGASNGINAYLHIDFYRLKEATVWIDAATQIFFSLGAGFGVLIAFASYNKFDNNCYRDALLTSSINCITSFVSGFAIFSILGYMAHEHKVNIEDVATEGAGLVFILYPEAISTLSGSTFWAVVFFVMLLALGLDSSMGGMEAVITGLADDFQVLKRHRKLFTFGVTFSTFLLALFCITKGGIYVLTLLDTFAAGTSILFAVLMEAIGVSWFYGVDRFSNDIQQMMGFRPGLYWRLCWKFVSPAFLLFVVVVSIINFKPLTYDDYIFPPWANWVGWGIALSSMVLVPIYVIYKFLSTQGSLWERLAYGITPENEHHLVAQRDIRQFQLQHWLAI

Row | SMILES | melting point | Ki [1] | Ki [2]
1 | CCOc1ccccc1OC(c1ccccc1)[C@H]1CCCNC1 (mixture of isomers) (as salt: fumaric acid salt) (hydrate or solvate) [Example 106, (S)-3-[(2-ethoxy-phenoxy)-(R,S)-phenyl-methyl]-piperidine fumaric acid] | 82 to 88 °C (dec.) | – | –
2 | Fc1ccc(Oc2ncccc2OC(c2ccccc2)C2CCCNC2)cc1 (single isomer, unassigned; stereoisomer a) (as salt: fumaric acid salt) (hydrate or solvate) [Example 88, 2-(4-fluoro-phenoxy)-3-[((R or S)-phenyl)-((S)-piperidin-3-yl)-methoxy]-pyridine fumaric acid, stereoisomer A] | 191 to 192 °C | – | –
3 | CCOc1ncccc1OC(c1ccccc1)C1CCCNC1 (single isomer, unassigned; stereoisomer a) (as salt: fumaric acid salt) [Example 90, 2-ethoxy-3-[((R or S)-phenyl)-((S)-piperidin-3-yl)-methoxy]-pyridine fumaric acid, stereoisomer A] | 159 to 161 °C | – | –
4 | Fc1ccc(Oc2ncccc2OC(c2ccccc2)C2CCCNC2)cc1 (single isomer, unassigned; stereoisomer b) (as salt: fumaric acid salt) [Example 89, 2-(4-fluoro-phenoxy)-3-[((R or S)-phenyl)-((S)-piperidin-3-yl)-methoxy]-pyridine fumaric acid, stereoisomer B] | 150 to 152 °C | – | –
5 | CCOc1ncccc1OC(c1ccccc1)C1CCCNC1 (single isomer, unassigned; stereoisomer b) (as salt: fumaric acid salt) [Example 91, 2-ethoxy-3-[((R or S)-phenyl)-((S)-piperidin-3-yl)-methoxy]-pyridine fumaric acid, stereoisomer B] | 58 to 68 °C (dec.) | – | –
6 | Fc1ccc(Oc2ncccc2OC[C@@H]2CCCNC2)cc1.O=C(O)/C=C/C(=O)O [Example 56, (R)-2-(4-fluoro-phenoxy)-3-(piperidin-3-ylmethoxy)-pyridine fumaric acid] | 172 to 173 °C | – | –
7 | CCOc1ccccc1OC[C@H]1CCCNC1 [Example 100, (S)-3-(2-ethoxy-phenoxymethyl)-piperidine fumaric acid] | – | 33 nM | 2600 nM
8 | COc1cccc(F)c1OC[C@H]1CCCNC1 [Example 103, (S)-3-(2-fluoro-6-methoxy-phenoxymethyl)-piperidine fumaric acid] | – | 45 nM | 1200 nM
9 | CCOc1cccc(F)c1OC[C@H]1CCCNC1 [Example 105, (S)-3-(2-ethoxy-6-fluoro-phenoxymethyl)-piperidine fumaric acid] | – | 32 nM | 2800 nM
10 | CCOc1ccccc1O[C@@H](C)[C@H]1CCCNC1 [Example 107, (S)-3-[(S)-1-(2-ethoxy-phenoxy)-ethyl]-piperidine] | – | 7 nM | 2700 nM
11 | CC(C)COc1ccccc1O[C@@H](C)[C@H]1CCCNC1 [Example 109, (S)-3-[(S)-1-(2-isobutoxy-phenoxy)-ethyl]-piperidine] | – | 3 nM | 1200 nM
12 | CC(C)CCOc1ccccc1O[C@@H](C)[C@H]1CCCNC1 [Example 112, (S)-3-{(S)-1-[2-(3-methyl-butoxy)-phenoxy]-ethyl}-piperidine oxalic acid] | – | 16 nM | 790 nM
13 | COCCOc1ccccc1O[C@@H](C)[C@H]1CCCNC1 [Example 113, (S)-3-{(S)-1-[2-(2-methoxy-ethoxy)-phenoxy]-ethyl}-piperidine hydrochloride] | – | 17 nM | 3600 nM
14 | CCOc1ccccc1O[C@@H](c1ccccn1)[C@H]1CCCNC1 [Example 114, 2-[{(R)-2-ethoxy-phenoxy}-(S)-piperidin-3-yl-methyl]-pyridine fumaric acid] | – | 7 nM | 3700 nM
15 | COc1ccc(F)cc1O[C@@H](c1ccccn1)[C@H]1CCCNC1 [Example 117, 2-[{(R)-5-fluoro-2-methoxy-phenoxy}-(S)-piperidin-3-yl-methyl]-pyridine fumaric acid] | – | 16 nM | 4600 nM
16 | COCCOc1ccccc1OC(C)(C)[C@H]1CCCNC1 [Example 118, (S)-3-{1-[2-(2-methoxy-ethoxy)-phenoxy]-1-methyl-ethyl}-piperidine fumaric acid] | – | 38 nM | 2500 nM

The next lines start with the values.

Row | melting point | Ki [1] | Ki [2] | SMILES
17 | 134 to 136 °C | 0.7 nM | 2300 nM | Cl.c1ccc(Oc2ccccc2OC[C@H]2CCCNC2)cc1 [Example 43, (S)-3-(2-phenoxy-phenoxymethyl)-piperidine hydrochloride]
18 | 128 to 130 °C | 2 nM | 320 nM | Fc1ccc(OC[C@H]2CCCNC2)c(Oc2ccccc2)c1.O=C(O)/C=C/C(=O)O [Example 46, (S)-3-(4-fluoro-2-phenoxy-phenoxymethyl)-piperidine fumaric acid]
19 | 128 to 129 °C | 4 nM | 6300 nM | Clc1cccc(Oc2ncccc2OC[C@H]2CCCNC2)c1.O=C(O)/C=C/C(=O)O [Example 59, (S)-2-(3-chloro-phenoxy)-3-(piperidin-3-ylmethoxy)-pyridine fumaric acid]
20 | 148 to 150 °C | 2 nM | 6600 nM | Fc1ccc(Oc2ncccc2OC[C@H]2CCCNC2)cc1F.O=C(O)/C=C/C(=O)O [Example 60, (S)-2-(3,4-difluoro-phenoxy)-3-(piperidin-3-ylmethoxy)-pyridine fumaric acid]
21 | – | 5 nM | 7500 nM | c1ccc(Oc2ncccc2OC[C@H]2CCCNC2)cc1 [Example 93, (S)-2-phenoxy-3-(piperidin-3-ylmethoxy)-pyridine fumaric acid]
22 | – | 4 nM | 530 nM | Cc1ccc(OC[C@H]2CCCNC2)c(Oc2ccccc2)n1 [Example 95, (S)-6-methyl-2-phenoxy-3-(piperidin-3-ylmethoxy)-pyridine fumaric acid]
23 | – | 1 nM | 530 nM | Fc1ccc(Oc2cccc(F)c2OC[C@H]2CCCNC2)cc1 [Example 96, (S)-3-[2-fluoro-6-(4-fluoro-phenoxy)-phenoxymethyl]-piperidine fumaric acid]
24 | – | 1 nM | 690 nM | Fc1ccc(Oc2cccc(F)c2OC[C@H]2CCCNC2)cc1F [Example 97, (S)-3-[2-(3,4-difluoro-phenoxy)-6-fluoro-phenoxymethyl]-piperidine fumaric acid]
25 | – | 1 nM | 1300 nM | Fc1ccc(Oc2c(F)cccc2OC[C@H]2CCCNC2)cc1 [Example 98, (S)-3-[3-fluoro-2-(4-fluoro-phenoxy)-phenoxymethyl]-piperidine trifluoroacetic acid]
26 | – | 3 nM | 730 nM | C[C@H](Oc1ccccc1OCc1ccccc1)[C@H]1CCCNC1 [Example 108, (S)-3-[(S)-1-(2-benzyloxy-phenoxy)-ethyl]-piperidine oxalic acid]
27 | – | 3 nM | 420 nM | C[C@H](Oc1ccccc1OCC1CCC1)[C@H]1CCCNC1 [Example 110, (S)-3-[(S)-1-(2-cyclobutylmethoxy-phenoxy)-ethyl]-piperidine oxalic acid]
28 | – | 5 nM | 1800 nM | C[C@H](Oc1ccccc1OC1CCCCC1)[C@H]1CCCNC1 [Example 111, (S)-3-[(S)-1-(2-cyclohexyloxy-phenoxy)-ethyl]-piperidine oxalic acid]
29 | – | 4 nM | 5020 nM | COc1cccc(F)c1O[C@@H](c1ccccn1)[C@H]1CCCNC1 [Example 115, 2-[{(R)-2-fluoro-6-methoxy-phenoxy}-(S)-piperidin-3-yl-methyl]-pyridine fumaric acid]
30 | – | 3 nM | 3700 nM | FC(F)(F)Oc1ccccc1O[C@@H](c1ccccn1)[C@H]1CCCNC1 [Example 116, 2-[(S)-piperidin-3-yl-{(R)-2-trifluoromethoxy-phenoxy}-methyl]-pyridine fumaric acid]
